Test results taken from paper PMC5738391, “Three classes of ligands each bind to distinct sites on the orphan G protein-coupled receptor GPR84” (Scientific Reports, 2017).

Assays:
[1] = system: GPR84-Gαi2 fusion protein; assay: [35S]GTPγS binding, membranes expressing GPR84-Gαi2 fusion protein; type: biochemical, human; conditions: for direct agonism of GPR84, [35S]GTPγS binding: DIM analogs; for allosteric effect on concentration-response curves of orthosteric agonists incl. compound-1: increasing concentrations of analog
Text: The only previous study[3] designed to explore the mode of binding of ligands to GPR84 employed a fusion protein[31],[32] in which the G protein Gαi1 was linked in-frame to the C-terminal tail of GPR84. […] These studies indicate that following pertussis toxin treatment of cells expressing the GPR84-Cys^352Ile Gαi2 fusion protein all agonist-induced binding of [^35S]GTPγS reflects incorporation of nucleotide into the receptor-linked G protein α subunit.
(§1) Membranes were generated from Flp-In T-REx HEK293 cells treated with 100 ng/mL doxycycline to induce expression of the receptor construct of interest. Cells were washed with ice-cold phosphate-buffered saline, removed from dishes by scraping and centrifuged at 3000 rpm for 5 min at 4 °C. Pellets were resuspended in TE buffer (10 mM Tris-HCl, 0.1 mM EDTA; pH 7.5) containing a protease inhibitor mixture (Roche Applied Science, West Sussex, UK) and homogenized with a 5 ml hand-held homogenizer. This material was centrifuged at 1500 rpm for 5 min at 4 °C and the supernatant was further centrifuged at 50000 rpm for 45 min at 4 °C. The resulting pellet was resuspended in TE buffer and protein content was assessed using a BCA protein assay kit (Pierce, Fisher Scientific, Loughborough, UK).
(§2) Initially, 5 μg of generated membrane protein was pre-incubated for 15 min at 25 °C in assay buffer (20 mM HEPES, 5 mM MgCl2; 160 mM NaCl; 1 μM GDP; 0.05% fatty acid-free bovine serum albumin; pH 7.5) containing the indicated ligand concentrations. […] The reaction was then initiated with addition of [^35S]GTPγS (50 nCi per tube), and the reaction was terminated after 45 minutes incubation at 30 °C by rapid filtration through GF/C glass filters using a 24-well Brandel cell harvester (Alpha Biotech, Glasgow, UK). Unbound radioligand was removed from filters by three washes with ice-cold phosphate buffered saline (pH 7.4) and filters were dried for 2–3 h at room temperature. Dried filters were added to 3 mL of Ultima Gold^TM XR (PerkinElmer Life Sciences, Beaconsfield, UK) and [^35S]GTPγS binding was determined by liquid scintillation spectrometry.

[2] = target: GPR84-Cys^352Ile Gαi2 fusion protein (Homo sapiens, UniProt Q9NQS5); assay: [35S]GTPγS binding, membranes expressing pertussis toxin-resistant GPR84-Cys352Ile Gαi2 fusion; operational model of allosteric modulation; type: biochemical; conditions: for measured potency compared between GPR84-Gαi2 and GPR84-Cys352Ile Gαi2 fusion constructs: [35S]GTPγS binding
Description: The only previous study[3] designed to explore the mode of binding of ligands to GPR84 employed a fusion protein[31],[32] in which the G protein Gαi1 was linked in-frame to the C-terminal tail of GPR84.
as §1
(§3) The reaction was then initiated with addition of [^35S]GTPγS (50 nCi per tube), and the reaction was terminated after 45 minutes incubation at 30 °C by rapid filtration through GF/C glass filters using a 24-well Brandel cell harvester (Alpha Biotech, Glasgow, UK). […] Dried filters were added to 3 mL of Ultima Gold^TM XR (PerkinElmer Life Sciences, Beaconsfield, UK) and [^35S]GTPγS binding was determined by liquid scintillation spectrometry.
To quantify the extent of allosteric interaction between pairs of ligands, data were analysed using an operational model of allosteric modulation described previously. The general version of this model can be depicted by the following equation: E=Em(τA[A](KB+αβ[B])+τB[B]KA)^n/([A]KB+KAKB+[B]KA+α[A][B])^n+(τA[A](KB+αβ[B])+τB[B]KA)^n where, E is the pharmacological effect, [A] and [B] are the orthosteric and allosteric compound concentrations at equilibrium, respectively; KA and KB are the equilibrium dissociation constants of the orthosteric and allosteric ligands respectively, denoting the binding affinities of the two ligands to the receptor; α is the binding cooperativity factor denoting the magnitude and direction of the allosteric effect on binding affinity of the orthosteric agonist to the receptor, β is the activation cooperativity factor representing the measure of the allosteric effect on orthosteric efficacy. τA and τB represent the intrinsic activity of the orthosteric and allosteric ligand, respectively. Em is the maximal possible system response and n denotes the slope factor of the transducer function. In case of global fitting of the allosterism data through this equation, Em and n values were always constrained and other parameters (KA, KB,τA, τB, α, β) were estimated.

[3] = target: T1, Arg^172Lys GPR84-Cys^352Ile Gαi2 fusion protein (Homo sapiens, UniProt Q9NQS5, R172K); assay: [35S]GTPγS binding, Arg172Lys mutant fusion protein; type: biochemical
T1 construct: Cys352Ile Gαi2 (fusion partner, same polypeptide); expressed in transfected cells; host or cells: membranes of Flp-In T-REx 293 cells, doxycycline-induced

[4] = target: T2, FLAG-Arg^174Ala hGPR84-eYFP (Homo sapiens, UniProt Q9NQS5, R174A); assay: [35S]GTPγS binding, Arg174Ala mutant receptor; type: biochemical
T2 construct: expressed in transfected cells; host or cells: membranes of Flp-In T-REx 293 cells, doxycycline-induced

[5] = target: T3, Arg^172Ala GPR84-Cys^352Ile Gαi2 fusion protein (Homo sapiens, UniProt Q9NQS5, R172A); assay: [35S]GTPγS binding, Arg172Ala mutant fusion protein; type: biochemical
T3 construct: Cys352Ile Gαi2 (fusion partner, same polypeptide); expressed in transfected cells; host or cells: membranes of Flp-In T-REx 293 cells, doxycycline-induced
Text: To try to identify how a MCFA might interact with GPR84 we turned to homology modelling studies. Although GPR84 is not closely related to the other GPCRs that respond to either short chain (FFA2, FFA3) or long chain (FFA1, FFA4) fatty acids[8],[9], in each of the other cases the carboxylate of the fatty acid is co-ordinated by one or more arginine residues located at or near the extracellular surface[12]–[14]. […] As we have highlighted recently[9] GPR84 and the β2-adrenoceptor are only distantly related whilst, of the currently available atomic level GPCR structures, the orexin OX1 receptor[34] has highest overall sequence identity (31%) with GPR84. We, therefore, generated and employed a new homology model of GPR84 based on the transmembrane domain architecture of the OX1 receptor (Fig. 6). However, because ECL2 of GPR84 is very similar in sequence to that of rhodopsin (Fig. 6a), with 43% residue identity over this region, we incorporated this knowledge into the modelling process. In the resulting hybrid model (Fig. 6a) Arg^172 within ECL2 is pointing into the potential binding cavity within the helical bundle. This was not the case when Nikaido et al.,[3] employed the β2-adrenoceptor-based model, probably because the ECL2 sequences of the β2-adrenoceptor and GPR84 have no relatedness. […] To assess this we mutated Arg^172 to Ala within the setting of the GPR84-Cys^352Ile Gαi2 fusion protein. […] Equivalent results were obtained in studies in which the Arg^172Ala mutation was introduced into the FLAG-hGPR84-eYFP construct (Fig. 7b).
FLAG-humanGPR84-Gαi2 fusion proteins were constructed by replacing eYFP within the FLAG-humanGPR84-eYFP-pcDNA5/FRT/TO construct with sequence corresponding to Gαi2 or Cys^352Ile Gαi2 using NotI and XhoI restriction enzymes. Site-directed mutagenesis to generate point mutants of GPR84 was performed according to the QuikChange method (Stratagene, Cheshire, UK). The identity of all constructs was verified by nucleotide sequencing.
as §2

[6] = target: T4, human GPR84 (FLAG-hGPR84-eYFP) (Homo sapiens, UniProt Q9NQS5); assay: [35S]GTPγS binding, membranes of cells expressing FLAG-hGPR84-eYFP; type: biochemical
T4 construct: expressed in transfected cells
Description: as §1, §3
All data are presented as means ± SEM of at least three independent experiments. Data analysis and curve fitting was carried out using the GraphPad Prism software package version 5.0b (GraphPad, San Diego). […] In case of inhibition experiments with antagonists an equivalent analysis was followed to fit an inverse sigmoidal curve. To perform the statistical analysis of curve parameters, data from multiple experiments were fitted independently and resulting curve fit values were analysed with indicated tests. For radioligand binding data, saturation binding curves were generated by fitting the specific binding, which was obtained by subtracting non-specific from total binding, to a one site specific binding model that allows calculation of Kd values for the radioligand at wild type and mutant receptors. To determine affinity of unlabelled ligands, data obtained in displacement assays were fit to an inverse three parameter sigmoidal curve constrained by radioligand affinity and concentration to allow for Ki calculation.

[7] = agonist 3a, modulator compound-1
[8] = agonist compound-1, modulator 3a

GPR84-Cys^352Ile Gαi2 fusion protein, sequence (Q9NQS5 whole entry, the tested form may be a part): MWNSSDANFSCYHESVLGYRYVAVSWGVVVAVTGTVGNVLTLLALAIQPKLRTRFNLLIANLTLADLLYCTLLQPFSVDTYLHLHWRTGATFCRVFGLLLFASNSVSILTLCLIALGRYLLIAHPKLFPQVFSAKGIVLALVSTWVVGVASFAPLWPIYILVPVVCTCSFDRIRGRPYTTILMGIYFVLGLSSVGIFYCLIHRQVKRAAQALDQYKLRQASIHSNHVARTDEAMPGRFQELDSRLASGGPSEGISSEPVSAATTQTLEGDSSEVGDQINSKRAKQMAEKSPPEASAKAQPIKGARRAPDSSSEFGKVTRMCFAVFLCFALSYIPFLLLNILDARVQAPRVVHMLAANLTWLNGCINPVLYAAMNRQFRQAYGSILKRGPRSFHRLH
GPR84-Cys^352Ile Gαi2 fusion protein, sequence (P04899 2-355 C352I, further chain): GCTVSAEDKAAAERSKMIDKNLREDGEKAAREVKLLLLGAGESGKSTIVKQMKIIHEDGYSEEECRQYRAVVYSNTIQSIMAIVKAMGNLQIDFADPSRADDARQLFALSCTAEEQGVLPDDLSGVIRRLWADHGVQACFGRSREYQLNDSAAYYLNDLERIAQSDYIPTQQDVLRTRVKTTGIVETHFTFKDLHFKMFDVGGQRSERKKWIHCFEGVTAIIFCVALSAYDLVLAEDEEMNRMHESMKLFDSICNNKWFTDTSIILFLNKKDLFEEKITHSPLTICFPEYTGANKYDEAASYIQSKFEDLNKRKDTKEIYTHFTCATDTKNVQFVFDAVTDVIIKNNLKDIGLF
T4 sequence (Q9NQS5 whole entry): as the sequence (Q9NQS5 whole entry, the tested form may be a part) above
T3 sequence (Q9NQS5 2-396 R172A): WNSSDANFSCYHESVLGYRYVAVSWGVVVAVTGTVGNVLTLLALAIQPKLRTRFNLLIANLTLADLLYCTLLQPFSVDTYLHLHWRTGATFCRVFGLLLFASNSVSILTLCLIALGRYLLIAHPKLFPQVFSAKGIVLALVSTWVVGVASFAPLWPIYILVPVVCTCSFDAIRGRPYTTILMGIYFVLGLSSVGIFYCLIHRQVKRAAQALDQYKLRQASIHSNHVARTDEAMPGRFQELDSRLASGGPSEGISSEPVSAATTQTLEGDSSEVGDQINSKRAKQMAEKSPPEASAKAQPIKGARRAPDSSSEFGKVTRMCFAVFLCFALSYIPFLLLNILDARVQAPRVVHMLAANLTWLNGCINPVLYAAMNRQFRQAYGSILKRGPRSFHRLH
T2 sequence (Q9NQS5 whole entry R174A): as the sequence (Q9NQS5 whole entry, the tested form may be a part) above, with R174A counted along it
T1 sequence (Q9NQS5 2-396 R172K): as the sequence (Q9NQS5 2-396 R172A) above, with A171K counted along it

With `COc1ccc2[nH]cc(Cc3c[nH]c4ccc(OC)cc34)c2c1` [3a] the “direct agonism of GPR84, [35S]GTPγS binding” value (“direct agonism of GPR84” below) [1] was “direct agonism”, the “allosteric effect on concentration-response curves of orthosteric agonists incl. compound-1” value [1] was “as large positive allosteric effects on the potency of the orthosteric agonist ligands as did DIM” and the logα [2, 7] was 1.43 ± 0.08. The logβ [2, 7] was 1.2 ± 0.06, the Kd ([2]; pKA (estimated for the agonist), agonist 3a, modulator compound-1) was 14.8 µM and the Kb ([2]; pKB (estimated for the modulator), modulator 3a, agonist compound-1) was 10 µM.

In the case of `COc1ccc2[nH]cc(C(c3ccc(C)cc3)c3c[nH]c4ccc(OC)cc34)c2c1` [3b], the “direct agonism of GPR84” value [1] is reported as “inactive”.

For `COc1ccc2[nH]cc(C(c3cc(F)cc(F)c3)c3c[nH]c4ccc(OC)cc34)c2c1` [3c], the “affinity for GPR84 (words, inferred from functional data)” value [1] was “lack affinity”, the “direct agonism of GPR84” value [1] was “inactive” and the “allosteric effect on concentration-response curves of orthosteric agonists incl. compound-1” value [1] was “unable to effect the position of the concentration-response curves”.

With `CCCCCCSc1nc(O)cc(O)n1` [compound-1, 2-(hexylthiol)pyridimine-4,6 diol] the “agonist response at Arg172Lys mutant” value [3] was “eliminated response”, the “effect of Arg174Ala mutation on agonist function or potency” value [4] was “did not affect function or potency” and the “agonist response at Arg172Ala mutant” value [5] was “no response”. The “measured potency compared between GPR84-Gαi2 and GPR84-Cys352Ile Gαi2 fusion constructs” value [2] was “indistinguishable”, the logα [2, 8] was 1.75 ± 0.05 and the logβ [2, 8] was -0.1 ± 0.02. It also gave a logβ ([2]; agonist compound-1, modulator DIM) of -0.2 ± 0.05 and a logα ([2]; agonist compound-1, modulator DIM, operational model of allosterism) of 2.1 ± 0.07.

In the case of `CCCCCCCCCC(=O)OC` [methyl decanoate], the “agonist activity, [35S]GTPγS binding” value ([6]; membranes of doxycycline-induced cells) is reported as “completely inactive”.

With `O=[N+]([O-])c1ccc2[nH]cc(Cc3c[nH]c4ccc([N+](=O)[O-])cc34)c2c1` [6a] the “direct agonism of GPR84” value [1] was “direct agonism”.

With `CCCCCCCCCCCC1=C(O)C(=O)C=C(O)C1=O` [embelin, 2,5-dihydroxy-3-undecyl-2,5-cyclohexadiene-1,4-dione] the “agonist response at Arg172Lys mutant” value [3] was “eliminated response”, the “effect of Arg174Ala mutation on agonist function or potency” value [4] was “did not affect function or potency” and the “agonist response at Arg172Ala mutant” value [5] was “no response”. The “measured potency compared between GPR84-Gαi2 and GPR84-Cys352Ile Gαi2 fusion constructs” value [2] was “indistinguishable”, the logα ([2]; agonist embelin, modulator DIM) was 1.22 ± 0.05 and the logβ ([2]; agonist embelin, modulator DIM) was 0.8 ± 0.02.

For “2-((S)-1-[1,4]dioxan-2-ylmethoxy)-9-(tetrahydro-pyran-4-yl-methoxymethyl)-6,7-dihydro-pyrimido[6,1-a]isoquinolin-4-one [Compound 161]”, the “ability to limit [35S]GTPγS binding induced by EC80 concentrations of C10 (50 μM), embelin (3 μM) and DIM (5 μM)” value [6] was “in a concentration-dependent fashion”.

For `O=c1nc(OCC2COCCO2)cc2n1CCc1cc(C#CCNc3ccccc3)ccc1-2` (stereo not shown) [Compound 107, 2-([1,4]dioxan-2-ylmethoxy)-9-(3-phenylamino-prop-1-ynyl)-6,7-dihydro-pyrimido[6,1-a]isoquinolin-4-one], the “ability to limit [35S]GTPγS binding induced by EC80 concentrations of C10 (50 μM), embelin (3 μM) and DIM (5 μM)” value [6] was “more potent than 161”, the “mode of blockade of DIM agonism” value ([6]; higher antagonist concentrations reduced maximal effect of DIM) was “non-competitive mode of blockade” and the “mode of blockade of embelin effects” value ([6]; increasing concentrations of antagonist decreased maximal effect of embelin) was “non-competitive manner”. The “potency to block DIM-stimulated [35S]GTPγS binding, Arg172Ala versus GPR84-Cys352Ile Gαi2 fusion” value [5] was “equal potency”.
